Source: patent US11999727B2 (Tango Therapeutics, Inc., priority 2020, dated 2024)

Legend:
[1] = system: HAP1 MTAP-deleted cell line; assay: SDMA in-cell western assay, HAP1 MTAP-deleted; format: cell-based; conditions: for IC50: Homo sapiens, HAP1, SDMA in-cell western, HAP1 MTAP-deleted, read-out: HAP1 MTAP deleted IC50; for MTAP intact/deleted ratio: IC50 ratio HAP1 MTAP-intact / HAP1 MTAP-deleted, SDMA in-cell western
Summary of the method: (§1)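 Readout: in-cell western detection of SDMA. Cells: HAP1 expressing endogenous MTAP and an MTAP-null HAP1 counterpart. Output: IC50.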

[2] = system: HAP1 MTAP-intact cell line; assay: SDMA in-cell western assay, HAP1 MTAP-intact; format: cell-based; conditions: Homo sapiens, HAP1, SDMA in-cell western, HAP1 MTAP-intact; read-out: MTAP HAP1 intact IC50
Summary of the method: as §1

[3] = system: HAP1 MTAP-deleted cell line; assay: Viability assay, MTAP-deleted cell line; format: cell-based; conditions: Homo sapiens, HAP1, viability assay, MTAP-deleted cell line; read-out: HAP1 MTAP deleted viability
Text: Table 1 additionally indicates IC50 values in a viability assay for the MTAP-deleted cell line (column 10), indicating the effect of treatment with compound on cell survival.

PRMT5 [4] = target: T1, PRMT5 (Homo sapiens, UniProt O14744); assay: PRMT5 biochemical IC50 assay with MTA as cofactor; conditions: PRMT5, MTA as cofactor; read-out: MTA IC50
T1 construct: purchased Viva (custom protein)
T1 sequence (O14744 whole entry): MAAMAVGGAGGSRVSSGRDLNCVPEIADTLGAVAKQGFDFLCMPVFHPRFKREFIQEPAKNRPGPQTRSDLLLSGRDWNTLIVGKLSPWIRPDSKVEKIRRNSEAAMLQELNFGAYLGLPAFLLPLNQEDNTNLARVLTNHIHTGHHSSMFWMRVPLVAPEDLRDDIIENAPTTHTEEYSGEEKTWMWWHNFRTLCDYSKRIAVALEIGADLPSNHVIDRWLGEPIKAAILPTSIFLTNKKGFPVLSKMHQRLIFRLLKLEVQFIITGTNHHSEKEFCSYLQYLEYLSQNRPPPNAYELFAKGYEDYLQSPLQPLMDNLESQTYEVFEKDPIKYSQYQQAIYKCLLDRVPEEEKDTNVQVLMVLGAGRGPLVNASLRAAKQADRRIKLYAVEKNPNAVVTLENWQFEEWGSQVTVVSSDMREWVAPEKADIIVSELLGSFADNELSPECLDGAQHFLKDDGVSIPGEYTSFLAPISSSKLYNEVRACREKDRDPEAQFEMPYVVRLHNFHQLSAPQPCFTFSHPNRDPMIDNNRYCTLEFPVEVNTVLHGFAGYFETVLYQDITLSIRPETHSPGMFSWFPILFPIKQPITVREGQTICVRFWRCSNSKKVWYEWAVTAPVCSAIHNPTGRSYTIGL
T1 sequence (Q9BQA1 whole entry partner): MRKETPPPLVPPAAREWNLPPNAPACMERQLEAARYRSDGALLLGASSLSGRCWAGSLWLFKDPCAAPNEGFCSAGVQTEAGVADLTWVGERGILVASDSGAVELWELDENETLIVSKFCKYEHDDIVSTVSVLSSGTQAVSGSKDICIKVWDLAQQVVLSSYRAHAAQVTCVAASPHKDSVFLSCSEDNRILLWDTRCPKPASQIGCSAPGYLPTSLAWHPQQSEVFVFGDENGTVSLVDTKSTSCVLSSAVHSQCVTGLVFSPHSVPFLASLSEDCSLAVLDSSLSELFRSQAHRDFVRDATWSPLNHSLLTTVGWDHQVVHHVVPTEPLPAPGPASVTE

PRMT5 [5] = target: T1, PRMT5; assay: PRMT5 biochemical IC50 assay with no cofactor; conditions: PRMT5, no cofactor; read-out: No Cofactor/rel IC50
Text: Table 1 indicates IC50 values (μM) against PRMT5 for exemplary compounds in the presence of SAM as cofactor, with no cofactor, and with MTA as cofactor, respectively (columns 4-6). […] Ki values can be calculated from the IC50 values as described in the Examples section. As detailed in the Examples section, for the assay performed in the presence of SAM, IC50=Ki×1.5 (Ki=IC50/1.5).

PRMT5 [6] = target: T1, PRMT5; assay: PRMT5 biochemical IC50 assay with SAM as cofactor; conditions: PRMT5, SAM as cofactor; read-out: SAM IC50

IC50 [1] [nM] | IC50 [2] [nM] | IC50 (PRMT5 [4]) [nM] | IC50 (PRMT5 [5]) [nM] | IC50 (PRMT5 [6]) [nM] | SMILES | MTAP intact/deleted ratio [1] | IC50 [3] [nM]
< 100 | > 1000 | < 50 | < 50 | 50 to 500 | Cc1cc(NC(=O)C(=O)N2C[C@H](C)CC[C@H]2c2cccc(C(F)(F)F)c2)cnc1N (single isomer, unassigned) [Compound 496] | A (an IC50 ratio greater than or equal to 10 fold) | 1000 to 10000
100 to 1000 | > 1000 | < 50 | < 50 | 50 to 500 | Cc1cc(NC(=O)C(=O)N2C[C@H](C)CC[C@H]2c2ccc(NS(C)(=O)=O)cc2)cnc1N (single isomer, unassigned) [Compound 499] | A (an IC50 ratio greater than or equal to 10 fold) | < 1000
> 1000 | > 1000 | > 500 | > 500 | > 500 | Cc1cc(NC(=O)C(=O)N2C[C@@H](C)CC[C@@H]2c2ccc3c(c2)CCCN3)cnc1N (single isomer, unassigned) [Compound 503] | C (an IC50 ratio of less than 3 fold) | > 10000
< 100 | 100 to 1000 | < 50 | < 50 | 50 to 500 | Cc1cc(NC(=O)C(=O)N2C[C@H](C)CC[C@H]2c2ccc3c(c2)CCCN3)cnc1N (single isomer, unassigned) [Compound 504] | A (an IC50 ratio greater than or equal to 10 fold) | < 1000
> 1000 | > 1000 | > 500 | > 500 | > 500 | Cc1cc(NC(=O)C(=O)N2C[C@@H](C)CC[C@@H]2c2ccc(NS(C)(=O)=O)cc2)cnc1N (single isomer, unassigned) [Compound 506] | B (an IC50 ratio greater than or equal to 3 fold but lower than 10 fold) | > 10000
> 1000 | > 1000 | > 500 | > 500 | > 500 | Cc1cc(NC(=O)C(=O)N2C[C@@H](C)CC[C@@H]2c2cccc(C(F)(F)F)c2)cnc1N (single isomer, unassigned) [Compound 507] | C (an IC50 ratio of less than 3 fold) | > 10000
< 100 | > 1000 | < 50 | 50 to 500 | 50 to 500 | C[C@H]1CC[C@H](c2ccc(F)c(Cl)c2)N(C(=O)C(=O)Nc2cncc(C(N)=O)c2)C1 (single isomer, unassigned) [Compound 512] | A (an IC50 ratio greater than or equal to 10 fold) | 1000 to 10000
> 1000 | > 1000 | > 500 | > 500 | > 500 | C[C@@H]1CC[C@@H](c2ccc(F)c(Cl)c2)N(C(=O)C(=O)Nc2cncc(C(N)=O)c2)C1 (single isomer, unassigned) [Compound 513] | C (an IC50 ratio of less than 3 fold) | > 10000
< 100 | > 1000 | < 50 | 50 to 500 | 50 to 500 | Cc1cc(NC(=O)C(=O)N2CCCC[C@H]2c2ccc3[nH]ncc3c2)cnc1N (single isomer, unassigned) [Compound 518] | A (an IC50 ratio greater than or equal to 10 fold) | < 1000
> 1000 | > 1000 | > 500 | > 500 | > 500 | Cc1cc([C@@H]2CC[C@@H](C)CN2C(=O)C(=O)Nc2cncc(C(N)=O)c2)ccn1 (single isomer, unassigned) [Compound 519] | C (an IC50 ratio of less than 3 fold) | > 10000
100 to 1000 | > 1000 | < 50 | 50 to 500 | 50 to 500 | Cc1cc(NC(=O)C(=O)N2C[C@H](C)CC[C@H]2c2ccc(NCC(F)(F)F)cc2)cnc1N (single isomer, unassigned) [Compound 522] | A (an IC50 ratio greater than or equal to 10 fold) | 1000 to 10000
> 1000 | > 1000 | > 500 | > 500 | > 500 | CC(=O)Nc1ccc([C@H]2CC[C@H](C)CN2C(=O)C(=O)Nc2cnc(N)c(C)c2)cc1 (single isomer, unassigned) [Compound 523] | C (an IC50 ratio of less than 3 fold) | > 10000

Second part, the compound before the results:

SMILES | IC50 [1] [nM] | IC50 [2] [nM] | IC50 (PRMT5 [4]) [nM] | IC50 (PRMT5 [5]) [nM] | IC50 (PRMT5 [6]) [nM] | MTAP intact/deleted ratio [1] | IC50 [3] [nM]
C[C@@H]1CC[C@@H](c2cc(Cl)cc(Cl)c2)N(C(=O)C(=O)Nc2cncc(C(N)=O)c2)C1 (single isomer, unassigned) [Compound 490] | > 1000 | > 1000 | > 500 | > 500 | > 500 | C (an IC50 ratio of less than 3 fold) | > 10000
C[C@H]1CC[C@H](c2cc(Cl)cc(Cl)c2)N(C(=O)C(=O)Nc2cncc(C(N)=O)c2)C1 (single isomer, unassigned) [Compound 491] | 100 to 1000 | > 1000 | < 50 | 50 to 500 | 50 to 500 | A (an IC50 ratio greater than or equal to 10 fold) | 1000 to 10000
C[C@@H]1CC[C@@H](c2ccc(N)nc2)N(C(=O)C(=O)Nc2cncc(C(N)=O)c2)C1 (single isomer, unassigned) [Compound 492] | < 100 | > 1000 | < 50 | < 50 | 50 to 500 | A (an IC50 ratio greater than or equal to 10 fold) | 1000 to 10000
C[C@H]1CC[C@H](c2ccc(N)nc2)N(C(=O)C(=O)Nc2cncc(C(N)=O)c2)C1 (single isomer, unassigned) [Compound 493] | > 1000 | > 1000 | > 500 | > 500 | > 500 | C (an IC50 ratio of less than 3 fold) | > 10000
C[C@@H]1CC[C@@H](c2ccc(C(F)(F)F)cc2)N(C(=O)C(=O)Nc2cncc(C(N)=O)c2)C1 (single isomer, unassigned) [Compound 508] | > 1000 | > 1000 | > 500 | > 500 | > 500 | C (an IC50 ratio of less than 3 fold) | > 10000
C[C@H]1CC[C@H](c2cccc(C(F)(F)F)c2)N(C(=O)C(=O)Nc2cncc(C(N)=O)c2)C1 (single isomer, unassigned) [Compound 509] | < 100 | > 1000 | < 50 | 50 to 500 | 50 to 500 | A (an IC50 ratio greater than or equal to 10 fold) | 1000 to 10000
C[C@@H]1CC[C@@H](c2cccc(C(F)(F)F)c2)N(C(=O)C(=O)Nc2cncc(C(N)=O)c2)C1 (single isomer, unassigned) [Compound 510] | > 1000 | > 1000 | > 500 | > 500 | > 500 | C (an IC50 ratio of less than 3 fold) | > 10000
C[C@H]1CC[C@H](c2ccc(C(F)(F)F)cc2)N(C(=O)C(=O)Nc2cncc(C(N)=O)c2)C1 (single isomer, unassigned) [Compound 511] | 100 to 1000 | > 1000 | < 50 | 50 to 500 | 50 to 500 | A (an IC50 ratio greater than or equal to 10 fold) | 1000 to 10000
COc1ncc(NC(=O)C(=O)N2C[C@H](C)CC[C@H]2c2cncs2)cc1C(N)=O (single isomer, unassigned) [Compound 514] | > 1000 | > 1000 | > 500 | > 500 | > 500 | C (an IC50 ratio of less than 3 fold) | > 10000
COc1ncc(NC(=O)C(=O)N2C[C@@H](C)CC[C@@H]2c2cncs2)cc1C(N)=O (single isomer, unassigned) [Compound 516] | < 100 | > 1000 | < 50 | < 50 | < 50 | A (an IC50 ratio greater than or equal to 10 fold) | < 1000
C[C@H]1CC[C@H]([C@@H]2CCC[C@@H](O)C2)N(C(=O)C(=O)Nc2cncc(C(N)=O)c2)C1 (single isomer, unassigned) [Compound 520] | 100 to 1000 | > 1000 | 50 to 500 | 50 to 500 | 50 to 500 | A (an IC50 ratio greater than or equal to 10 fold) | > 10000
